Results published in US20260183432A1, “IMAGING AGENTS FOR DETECTING CD206+ MACROPHAGES” (THE GENERAL HOSPITAL CORPORATION, priority 2022, published 2026).
“Also recorded” adds a separate entry of the source. Read-outs that look alike come from different tables or passages of the source.

How the values were obtained:
[1] = test system: CD206+ TAMs; experiment: MR imaging of experimental glioma; assay type: in vivo, mouse; conditions: third week, 30 and 60 min post-injection
Method: Eight-to nine-week-old C57BL/6J female mice were used for MRI of wound healing and glioma (Jackson Laboratory, ME). The generation of wound healing and glioma is described in Examples 14 and 15, respectively. The mice with subcutaneous wounds were imaged on days 1, 4, and 7 longitudinally or on day 7. Mice with glioma were imaged on the third week. […] Regions of interest (ROIs) were drawn and the contrast-to-noise ratios (CNRs, CNRpre-contrast subtracted) were calculated by a radiologist with over 20 years of experience blinded to the identity of the imaging agent used and the strain of the mice (n=3 per group). […]
Eight- to nine-week-old C57BL/6J female mice were used in this experiment (Jackson laboratory, ME). […] The mice then were monitored daily for signs of discomfort or neurological symptoms.

[2] = in vitro relaxivity (r1), Bruker Minispect; assay type: physicochemical
Method: Relaxation time (T1) of Mann2-DTPA-Gd/MannGdFish at concentrations of 0.1, 0.2, 0.3, 0.5, 0.6, 0.75, and 1 mM in PBS was measured on the Bruker Minispect (Bruker Analytics, MA) at 0.47 T (20 MHz) at 40° C. The slope value of the linear function of 1/T1 (s) to their corresponding concentrations is defined as the relaxivity (n=3 for each concentration).

[3] = test system: CD206+ macrophages; experiment: MR imaging in mouse model of cutaneous wound healing; assay type: in vivo; conditions: 45-75 min post-injection, wildtype mice
[4] = test system: M1/M2 macrophages and HEK293 cells; experiment: ICP-MS of gadolinium on cells incubated with agent; assay type: cell-based
Method: M1 and M2 differentiated macrophages were incubated with 1 mM of Mann2-DTPA-Gd for 1 h at 4° C. After washing with PBS (×3), cells were collected, digested with nitric acid (70%, 200 μL) overnight and subjected to ICP-MS to detect the amount of Gd.
M1 and M2 polarized differentiation. Raw 264.7 cells (Passage 8 from the cell core of center for Systems Biology at Massachusetts General Hospital, Boston) in 10 mL petri dishes were cultured with Dulbecco's modified eagle medium with high glucose (DMEM, Thermo Fisher Scientific, NY, USA) containing 10% of fetal bovine serum (FBS, Sigma-Aldrich, MO, USA) and 0.5% streptomycin/penicillin (Cellgro) until reaching 80% of confluency. Then differentiating media containing IFN-gamma (100 ng/ml the above medium) for M1 polarization and IL-4 (100 ng/mL) for M2 polarization were added to the dishes, respectively. After 24 h, the M1 and M2 polarized macrophages were ready for the following experiments.

[5] = test system: CD206+ macrophages; experiment: MR imaging in mouse model of cutaneous wound healing; assay type: in vivo
Method: Eight-to nine-week-old C57BL/6J female mice were used for MRI of wound healing and glioma (Jackson Laboratory, ME). The generation of wound healing and glioma is described in Examples 14 and 15, respectively. The mice with subcutaneous wounds were imaged on days 1, 4, and 7 longitudinally or on day 7. Mice with glioma were imaged on the third week. All the mice were imaged pre- and at 0, 15, 30, 45 and 60 min after 0.3 mmol/kg of Mann2-DTPA-Gd or MannGdFish was administered intravenously via a tail vein using serial T1 rapid acquisition with relaxation enhancement (RARE) sequence (TR: 935.77 ms, TE: 13.59 ms, averages: 12, rare factor: 4, 256×256×48 matrix size, 0.156×0.156×1 mm^3 voxel size) with chemical fat suppression using a Hermitian pulse shape with an 8.253 ms pulse and 701.19 Hz bandwidth 3.5 ppm down from the water peak and respiratory gating on a 4.7 T small animal MR scanner (Bruker, Cambridge, MA) with a 3 cm quadrature volume coil (Rapid MR International, Germany). Regions of interest (ROIs) were drawn and the contrast-to-noise ratios (CNRs, CNRpre-contrast subtracted) were calculated by a radiologist with over 20 years of experience blinded to the identity of the imaging agent used and the strain of the mice (n=3 per group).
Wound healing procedure. Seven-to ten-week-old C57BL/6J female mice (The Jackson Laboratories, ME) and mannose-receptor deficient mice were used in this study. A circular outline on the back of a mouse was made with a 4 mm biopsy punch (Kai Medical, Japan) under anesthesia using isoflurane. Then a full-thickness excisional wound was generated that extended through the subcutaneous tissue. A silicone splint was glued over the wound, anchored with 6-0 nylon sutures, and covered with a transparent occlusive dressing (OpSite). Xylazine/norepinephrine (100 μL) were intraperitoneally injected twice a day for two days and the mice were monitored daily.

O=C([O-])CN(CCN(CC(=O)[O-])CC(=O)NC1C(O)OC(CO)C(O)C1O)CCN(CC(=O)[O-])CC(=O)NC1C(O)OC(CO)C(O)C1O.[Gd+3] (stereo not drawn) [Mann2-DTPA-Gd]
contrast enhancement of glioma [1]: Substantial contrast enhancement | relaxivity (r1) [2]: 3.6 mmol⁻¹ s⁻¹ | relaxivity (r1) ([2]; in PBS, 0.47 T, 40° C.): 3.6 mM⁻¹ s⁻¹ | CNR on day 7 compared to day 4 [3]: 2- to 3 fold | amount of gadolinium on M2 macrophages versus M1 macrophages and HEK293 cells [4]: much higher than that on M1 macrophages and HEK293 cells; also recorded: markedly higher than that in M1 macrophages and HEK293 cells | CNR on day 7 compared to day 4 ([5]; 45 min post-injection, wildtype mouse): about two-fold | CNR on day 7 versus days 1 and 4 ([5]; 60 min post-injection, longitudinal imaging): much higher compared to that on days 1 and 4 | signal intensity / CNR time course ([5]; mannose receptor-knockout mice, day 7, 0.3 mmol/kg): decreased significantly after 15 min post-injection compared to that in wildtype mice; also recorded: decreased over time after initially peaking at 15 min post-injection | contrast-to-noise ratio (CNR) time course ([5]; wildtype mice, day 7 after wound induction): increasing over time until 45 min post-injection prior to slowly decreasing; also recorded: slow decrease of CNR
